We go through seven compounds from publication PMC545952, “Analysis of the kinetic mechanism of recombinant human isoprenylcysteine carboxylmethyltransferase (Icmt)” (BMC Biochemistry, 2004).

One experiment has as its target T1, recombinant human Icmt (Homo sapiens, UniProt O60725).
T1 construct: a recombinant baculovirus containing the entire open reading frame of the human Icmt cDNA; made in house; host or cells: Sf9 insect cells (baculovirus); membrane fraction used
Kind of experiment: Icmt assay: [3H]methyl incorporation into BFC, Sf9 membranes containing recombinant human Icmt. The experiment is classed as biochemical. Conditions: for Km: substrate of recombinant human Icmt, in vitro methylation assay, read-out: Km (apparent) as substrate. The text has this:
Streptavidin-sepharose beads were purchased from Amersham, trans, trans-farnesyl bromide, biotin N-hydroxysuccinimide ester and S-(5'-adenosyl)-L-methionine p-toluenesulfonate were purchased from Sigma-Aldrich, L-cysteine was purchased from Novabiochem, [^3H-methyl]-S-adenosyl-L-methionine was purchased from Perkin Elmer Life Sciences, farnesylthioacetic acid (FTA) was purchased from Biomol, S-(5'-adenosyl)-L-homocysteine was purchased from Fluka. The N-acetyl-S-farnesylcysteine methyl ester (AFCME) and N-acetyl-S-farnesylcysteine methyl amide (AFCMA) were synthesized as previously described ([24-26]). Recombinant human Icmt was prepared by infection of Sf9 cells with a recombinant baculovirus containing the entire open reading frame of the human Icmt cDNA as described. The membrane fraction of the infected Sf9 cells, isolated as described for studies with the Rce1 protease, was used as the source of Icmt for all studies described.
The assay developed for Icmt activity involved quantitation of [^3H]methyl incorporation into the small molecule substrate BFC. For the standard assay, reactions were initiated by addition of Sf9 membranes containing Icmt (0.5 μg protein) to an assay mixture containing BFC (4 μM) and [^3H]AdoMet (5 μM, 1.3 Ci/mmol) in100 mM Hepes, pH 7.4 and 5 mM MgCl2 in a total volume of 45 μl. Reactions were carried out for 20 min at 37°C, whereupon they were terminated by addition of 5 μl of 10% Tween 20. Following termination, streptavidin beads (10 μl of packed beads suspended in 500 μl of 20 mM NaH2PO4, pH 7.4, contaning 150 mM NaCl) were added, and the mixtures mixed by gentle agitation overnight at 4°C. The beads were harvested by centrifugation in a tabletop microcentrifuge at 10,000 rpm for 5 min and washed 3 times with 500 μl of 20 mM NaH2PO4, pH 7.4, containing 150 mM NaCl. The beads were then suspended in 100 μl of the same buffer, transferred to scintillation vials, and radioactivity determined. For the kinetic analyses, the concentrations of substrates (AdoMet, BFC) or additional ligands (eg. AdoHcy, AFCME, etc) were varied as detailed in the legends to the appropriate figures.

Experiment [1] has as its target methyltransferase activity in rod outer segments. The conditions noted are these: cited from earlier work; for Ki: previous study, rod outer segments.
Where [2] appears, read: varied AdoMet, fixed BFC 4 μM, read-out: Ki with respect to AdoMet.
Where [3] appears, read: varied BFC, fixed AdoMet 5 μM, read-out: Ki with respect to BFC.

Each structure is given as a SMILES string. “And” between values parts separate entries of the source, which are not always exact repeats. Identical values can stand only once. Like-named read-outs stand apart in the source and are kept apart here.

T1 sequence (O60725 whole entry): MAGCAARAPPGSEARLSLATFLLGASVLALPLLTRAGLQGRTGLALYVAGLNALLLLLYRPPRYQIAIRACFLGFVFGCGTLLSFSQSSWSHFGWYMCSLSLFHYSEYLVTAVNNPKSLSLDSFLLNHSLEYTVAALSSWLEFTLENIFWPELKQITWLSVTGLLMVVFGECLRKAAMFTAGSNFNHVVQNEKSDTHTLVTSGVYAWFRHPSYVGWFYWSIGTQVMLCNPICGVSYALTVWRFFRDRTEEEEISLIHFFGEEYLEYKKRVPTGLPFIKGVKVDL

In the case of `Nc1ncnc2c1ncn2[C@@H]1O[C@H](CSCC[C@H](N)C(=O)O)[C@@H](O)[C@H]1O` [AdoHcy, S-adenosyl-L-homocysteine], the “type of inhibition with respect to AdoMet” value at recombinant human Icmt (varied AdoMet, fixed BFC 4 μM) is recorded as “Competitive”. The Ki at recombinant human Icmt (setting [2]) is 3.5 µM and 3.54 µM; on recombinant human Icmt (setting [3]) it was 3.6 µM and 3.59 µM. The “type of inhibition with respect to BFC” value at recombinant human Icmt (varied BFC, fixed AdoMet 5 μM) is listed as “Competitive”.
Turning to `COC(=O)[C@H](CSCC=C(C)CCC=C(C)CCC=C(C)C)NC(C)=O` [AFCME, N-acetyl-S-farnesyl-L-cysteine methylester], the Ki in experiment [1] (compared with the value with respect to BFC, read-out: inhibition constant with respect to prenylcysteine substrate) is 41 µM; in experiment [1] (read-out: inhibition constant with respect to AdoMet), 73 µM; on recombinant human Icmt (setting [2]), 2.4 µM and 2.43 µM; on recombinant human Icmt (setting [3]), 1.9 µM and 1.91 µM. Also, the “type of inhibition with respect to AdoMet” value at recombinant human Icmt (varied AdoMet, fixed BFC 4 μM) is “Mixed-type”. For the same compound, the “type of inhibition with respect to BFC” value on recombinant human Icmt (varied BFC, fixed AdoMet 5 μM) was “Noncompetitive”.
The Km is the concentration of substrate that gives half-maximal velocity. Regarding `CC(C)=CCC/C(C)=C/CC/C(C)=C/CSC[C@H](NC(=O)CCCCC1SCC2NC(=O)NC21)C(=O)O` (stereo partly drawn) [BFC, biotin-S-farnesyl-L-cysteine], the Michaelis constant (Km) at recombinant human Icmt turned out to be 2.1 µM.
`CC(C)=CCC/C(C)=C/CC/C(C)=C/CSCC(=O)O` [FTA, S-farnesylthioacetic acid]: the “type of inhibition with respect to AdoMet” value on recombinant human Icmt (varied AdoMet, fixed BFC 4 μM) was “Uncompetitive”. In addition, the “type of inhibition with respect to BFC” value at recombinant human Icmt (varied BFC, fixed AdoMet 5 μM) is listed as “Competitive”. The Ki at recombinant human Icmt (setting [3]) was 1.2 µM and 1.17 µM.
As to `CC(=O)N[C@@H](CSCC=C(C)CCC=C(C)CCC=C(C)C)C(=O)O` [AFC, N-acetyl-L-farnesylcysteine], in experiment [1] (read-out: apparent Km as substrate), the Km is 20 µM. Besides, on recombinant human Icmt (AFC Km (ref 20, 31) versus BFC Km 2.1 μM), the “apparent Km relative to Km of BFC” value worked out at 10 fold.
On to `C[S+](CC[C@H](N)C(=O)[O-])C[C@H]1O[C@@H](n2cnc3c(N)ncnc32)[C@H](O)[C@@H]1O` (stereo partly drawn) [AdoMet, S-adenosyl-L-methionine], for which the Michaelis constant (Km) on recombinant human Icmt was determined as 7.8 µM.
Take `CNC(=O)[C@H](CSCC=C(C)CCC=C(C)CCC=C(C)C)NC(C)=O` [AFCMA, N-acetyl-S-farnesyl-L-cysteine methyl amide]: the “product inhibition results compared with AFCME” value on recombinant human Icmt (second prenylcysteine-type product analog, data not shown) was “essentially identical results”.
